7 compounds from patent publication US10562912B2 (C&C Research Laboratories, priority 2013, dated 2020) can be followed below.

Holding throughout (type): cell-based
Assay [1] addresses T1, STAT3 (Homo sapiens, UniProt P40763).
T1 construct: plasmid pSTAT3-TA-luc), which contains a stably operating STAT3 promoter; endogenous in cells
Briefly: STAT3 reporter gene assay (luciferase), LNCaP stable cell line (pSTAT3-TA-luc), IL-6 stimulation. Put shortly:
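Cytotoxicity was run on a duplicate plate with CellTiter-Glo, while the other plate gave luciferase read-outs from lysed LNCaP pSTAT3-TA-luc reporter cells. Cells were treated with graded compound concentrations plus IL-6 (10 ng/mL final) for 24–48 h in 3% DCC-FBS medium. Unstimulated and stimulated wells served as negative and positive controls.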

Assay [2] deals with MDA-MB-231. Put plainly: Cell growth inhibition assay, breast cancer cell line MDA-MB-231. The settings on record: Homo sapiens; MDA-MB-231 breast cancer cell line, 5,000 cells/well.
The test system of assay [3] is LNCaP. Briefly: Cell growth inhibition assay, prostate cancer cell line LNCaP (medium with 10 ng/mL IL-6). The settings on record: Homo sapiens, medium supplemented with 10 ng/mL of IL-6, 10,000 cells/well.
The test system of assay [4] is DU-145. Briefly: Cell growth inhibition assay, prostate cancer cell line DU-145. The settings on record: Homo sapiens, DU-145 prostate cancer cell line. The method, boiled down:
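Readout was CellTiter-Glo luminescence after 72–96 h of compound exposure at 37 °C, 5% CO2. Plating density was 3,000 cells/well for DU-145 and HCT116 and 5,000 cells/well for SW626. Controls were 0.1% DMSO wells and medium-only wells.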

For assay [5], the system named is HEL92.1.7. Briefly: Cell growth inhibition assay, blood cancer cell line HEL92.1.7. The settings on record: Homo sapiens, HEL 92.1.7, HEL92.1.7 blood cancer cell line. The method, boiled down:
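Cells were seeded at 3,000/well (HCT116, DU-145) or 5,000/well (SW626 and the others) and exposed to serial compound dilutions for 72 to 96 h at 37 °C under 5% CO2. Viability was read as CellTiter-Glo luminescence against 0.1% DMSO and cell-free wells.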

Assay [6] concerns U266. Briefly: Cell growth inhibition assay, blood cancer cell line U266. The settings on record: Homo sapiens, U-266 blood cancer cell line. As to the method: The inhibitory effects of the compounds of the present invention against the growth of cancer cells were evaluated as shown below. The cancer cell lines including stomach cancer cell line (AGS), breast cancer cell lines (MDA-MB-231, MDA-MB-468, and BT-549), prostate cancer cell lines (LNCaP and DU-145), colon cancer cell line (HCT116), ovarian cancer cell line (SW626), liver cancer cell line (Hep3B), kidney cancer cell line (ACHN), lung cancer cell line (NCI-H23) and blood cancer cell lines (HEL92.1.7 and U266) were cultured under the protocol provided by each supplier. A medium supplemented with 10 ng/mL of IL-6 was used for LNCaP, a prostate cancer cell line, when treated with a drug. Each type of cells to be used in experiments were sub-cultured in a 96-well plate by counting the exact number of cells using Tali™ Image-based Cytometer (Life Technologies). In a 96-well plate, AGS, HCT116, and DU-145 were employed with 3,000 cells/well; NCI-H23, SW626, Hep3B, ACHN, BT-549, MDA-MB-231, HEL92.1.7, and U266 were employed with 5,000 cells/well; and LNCaP and MDA-MB-468 were employed with 10,000 cells/well. The cells were treated with the compounds listed in Examples which were diluted in various concentrations. Upon completion of the compounds treatment, AGS, HCT116, SW626, DU145, NCI-H23, Hep3B, ACHN, BT-549, LNCaP, HEL92.1.7, and U266 cells were cultured at 37° C. under 5% CO2 for from 72 to 96 hours, and MDA-MB-231 and MDA-MB-468 cells were cultured at 37° C. in air for from 72 to 96 hours. Subsequently, the cells were observed under microscope and drug precipitation and particular findings were investigated and recorded. And then, the 96-well plate was placed at room temperature for 30 minutes, added with 20 μL/well of CellTiter-Glo solution (Cat No. G7573, Promega) and shaken for 10 minutes, followed by being subjected to the measurement using PHERAstar™ microplate reader (BMG LABTECH) according to the supplier's general luminometer protocol. Wells where only culture liquid added without cell plating were used as a negative control, whereas wells where culture liquid containing 0.1% DMSO instead of the compounds listed in Examples were used as a positive control.

Molecules are shown by their SMILES.

T1 sequence (P40763 whole entry): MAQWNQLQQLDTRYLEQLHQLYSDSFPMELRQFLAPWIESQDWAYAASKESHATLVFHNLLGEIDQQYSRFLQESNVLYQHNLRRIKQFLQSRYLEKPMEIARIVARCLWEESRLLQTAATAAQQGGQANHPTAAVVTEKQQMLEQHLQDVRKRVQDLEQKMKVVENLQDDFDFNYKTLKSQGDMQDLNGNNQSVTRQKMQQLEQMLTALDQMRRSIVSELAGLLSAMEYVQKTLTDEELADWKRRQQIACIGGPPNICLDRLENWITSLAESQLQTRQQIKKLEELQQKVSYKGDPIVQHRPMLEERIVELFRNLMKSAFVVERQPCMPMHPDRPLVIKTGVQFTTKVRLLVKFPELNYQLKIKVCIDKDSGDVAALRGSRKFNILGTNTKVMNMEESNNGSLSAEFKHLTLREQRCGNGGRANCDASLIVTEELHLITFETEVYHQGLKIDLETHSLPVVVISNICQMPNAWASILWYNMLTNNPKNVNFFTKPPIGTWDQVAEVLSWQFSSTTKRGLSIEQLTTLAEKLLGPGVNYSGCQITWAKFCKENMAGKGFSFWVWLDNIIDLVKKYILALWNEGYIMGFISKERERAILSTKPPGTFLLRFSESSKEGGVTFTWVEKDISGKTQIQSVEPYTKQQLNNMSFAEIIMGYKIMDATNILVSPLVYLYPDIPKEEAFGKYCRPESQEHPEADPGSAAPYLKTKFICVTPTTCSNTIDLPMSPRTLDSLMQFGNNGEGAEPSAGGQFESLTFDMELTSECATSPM

Consider `COc1cc(OC(F)(F)F)cc(C(C)(C)c2cccc(NC(=O)c3cc4ccc(NS(C)(=O)=O)cc4[nH]3)c2)c1` [Example 9, N-(3-(2-(3-methoxy-5-(trifluoromethoxy)phenyl)propan-2-yl)phenyl)-6-(methylsulfonamido)-1H-indole-2-carboxamide], for which the IC50 turned out to be 0.056 µM in assay [1]; 0.012 µM in assay [2]; 0.78 µM in assay [3]; 0.035 µM in assay [4]; 0.95 µM in assay [5]; 0.74 µM in assay [6].

As to `CCOc1cc(OC(F)(F)F)cc(C(C)(C)c2cc(Br)cc(NC(=O)c3cc4ccc(NS(C)(=O)=O)cc4[nH]3)c2)c1` [Example 22, N-(3-bromo-5-(2-(3-ethoxy-5-(trifluoromethoxy)phenyl)propan-2-yl)phenyl)-6-(methylsulfonamido)-1H-indole-2-carboxamide], the IC50 in assay [1] was 0.11 µM; in assay [2], 0.007 µM; in assay [3] it was 0.29 µM; in assay [4] it was 0.048 µM; in assay [5], 0.13 µM; in assay [6], 0.13 µM.

With `CC(C)Oc1cc(CN2CCOCC2)cc(C(C)(C)c2cc(Br)cc(NC(=O)c3cc4cc(NS(C)(=O)=O)ccc4s3)c2)c1` [Example 122, N-(3-bromo-5-(2-(3-isopropoxy-5-(morpholinomethyl)phenyl)propan-2-yl)phenyl)-5-(methylsulfonamido)benzo[b]thiophene-2-carboxamide], the IC50 in assay [1] turned out to be 0.12 µM; in assay [3] it was 0.24 µM; in assay [4] it was 0.049 µM; in assay [5] it was 0.19 µM; in assay [6], 0.18 µM.

With `CC(C)Oc1cc(CN2CCN(C(=O)OC(C)(C)C)CC2)cc(C(C)(C)c2cc(Br)cc(NC(=O)c3cc4cc(NS(C)(=O)=O)ccc4s3)c2)c1` [Example 123, tert-butyl 4-(3-(2-(3-bromo-5-(5-(methylsulfonamido)benzo[b]thiophene-2-carboxamido)phenyl)propan-2-yl)-5-isopropoxybenzyl)piperazine-1-carboxylate], the IC50 in assay [1] was 0.046 µM; in assay [3], 0.15 µM; in assay [4], 0.042 µM; in assay [5], 0.11 µM; in assay [6] it was 0.13 µM.

Consider `CC(C)Oc1cc(CN2CCN(C(=O)C(C)(C)C)CC2)cc(C(C)(C)c2cc(Cl)cc(NC(=O)c3cc4cc(NS(C)(=O)=O)ccc4s3)c2)c1` [Example 127, N-(3-chloro-5-(2-(3-isopropoxy-5-((4-pivaloylpiperazin-1-yl)methyl)phenyl)propan-2-yl)phenyl)-5-(methylsulfonamido)benzo[b]thiophene-2-carboxamide], for which the IC50 in assay [1] was found to be 0.15 µM; in assay [3], 0.14 µM; in assay [4], 0.066 µM; in assay [5], 0.34 µM; in assay [6], 0.43 µM.

As for `CC(C)Oc1cc(CN2CCN(c3noc(C(C)C)n3)CC2)cc(C(C)(C)c2cc(Cl)cc(NC(=O)c3cc4cc(NS(C)(=O)=O)ccc4s3)c2)c1` [Example 129, N-(3-chloro-5-(2-(3-isopropoxy-5-((4-(5-isopropyl-1,2,4-oxadiazol-3-yl)piperazin-1-yl)methyl)phenyl)propan-2-yl)phenyl)-5-(methylsulfonamido)benzo[b]thiophene-2-carboxamide], the IC50 in assay [1] is 0.07 µM; in assay [3], 0.12 µM; in assay [4], 0.06 µM; in assay [5] it was 0.24 µM; in assay [6], 0.28 µM.

For `CC(C)Oc1cc(CN2CCN(C3COC3)CC2)cc(C(C)(C)c2cc(Cl)cc(NC(=O)c3cc4cc(NS(C)(=O)=O)ccc4s3)c2)c1` [Example 130, N-(3-chloro-5-(2-(3-isopropoxy-5-((4-(oxetan-3-yl)piperazin-1-yl)methyl)phenyl)propan-2-yl)phenyl)-5-(methylsulfonamido)benzo[b]thiophene-2-carboxamide], the IC50 in assay [1] is 0.308 µM; in assay [3] it was 0.76 µM; in assay [4], 0.17 µM; in assay [5], more than 1.1 µM; in assay [6], 0.74 µM.
